{
  "source": "patent US9371337B2",
  "about": "“β-lactamase inhibitors” (The Regents of the University of California, priority 2011, dated 2016)",
  "key": {"[1]": {"test_system": "E. cloacae 135, AmpC-overproducing", "experiment": "MIC of third-generation cephalosporins alone and with compounds (Table 6)", "type": "cell-based, Enterobacter cloacae", "settings": "antibiotic alone", "experimental": "(§1) The anti-resistance activity of inhibitors was investigated by the determination of the minimum inhibitory concentrations (MICs) of the β-lactam/inhibitor combination necessary to inhibit the growth of clinically-isolated bacteria resistant to third-generation cephalosporins via expression of class A or class C β-lactamases (Table 6).\n(§2) Susceptibility testing was performed and interpreted following the guidelines of CLSI. (Clinical and Laboratory Standards Institute, Performance standards for antimicrobial susceptibility testing, 20th Informational Supplement, M100-S20 2010) The compounds were dissolved in 50% DMSO, and dilutions were performed using Muller-Hinton medium. An adequate final concentration was obtained to determine the minimum inhibitory concentrations (MICs). The concentration of DMSO was maintained below 5%. The inhibitors were tested for synergy with the third-generation β-lactams ceftazidime and cefotaxime against several clinical bacteria. The ratio of β-lactams to inhibitors was 1:4. Each value reported reflects the average of three independent experiments. […] The Friedman's test and the Wilcoxon signed rank test were used to compare MIC values. Statistical significance was established at p<0.05.\n(§3) Table 6. MICs (μg/ml) of third-generation cephalosporins alone and in association with the compounds (ratio 1/4) for clinical bacteria. CTX, cefotaxime and CAZ, ceftazidime. ^1, AmpC-overproducing bacteria; ^2, CTX-M-14-producing E. coli; ^3, KPC-2-producing K. pneumoniae; ^4, OXA-48-producing K. pneumoniae; ^5, NDM-1-producing C. freundii."}, "[2]": {"test_system": "E. cloacae, AmpC-overproducing", "experiment": "MIC of third-generation cephalosporins alone and with compounds (Table 6)", "type": "cell-based, Enterobacter cloacae", "settings": "antibiotic alone", "experimental": "as §1, §2, §3"}, "[3]": {"test_system": "K. pneumoniae producing the plasmid-mediated class C β-lactamase DHA-1", "experiment": "MIC of third-generation cephalosporins alone and with compounds 4 or 9 (Table 3)", "type": "cell-based, Klebsiella pneumoniae", "settings": "antibiotic alone", "text": "(§4) Antimicrobial activity was investigated quantitatively to determine the minimum inhibitory concentrations (MICs) of the β-lactam/inhibitor combination necessary to inhibit the bacterial growth (Table 3). The MICs of β-lactams alone against the strains corresponded to a high level of resistance according to Clinical and Laboratory Standards Institute (CLSI) standards. (Clinical and Laboratory Standards Institute, Performance standards for antimicrobial susceptibility testing, 20th Informational Supplement, M100-S20 2010) The compounds had no measurable antibiotic activity when used alone.\n(§5) Susceptibility testing was performed and interpreted following the guidelines of CLSI. (Clinical and Laboratory Standards Institute, Performance standards for antimicrobial susceptibility testing, 20th Informational Supplement, M100-S20 2010) The compounds were dissolved in 50% DMSO, and dilutions were performed using Muller-Hinton medium. An adequate final concentration was obtained to determine the minimum inhibitory concentrations (MICs). The concentration of DMSO was maintained below 5%. The inhibitors were tested for synergy with the third-generation β-lactams ceftazidime and cefotaxime against several clinical bacteria. […] Each value reported reflects the average of three independent experiments. […] A Klebsiella pneumoniae isolate produced the inducible plasmid-mediated class C enzyme DHA-1. The Friedman's test and the Wilcoxon signed rank test were used to compare MIC values. Statistical significance was established at p<0.05."}, "[4]": {"test_system": "E. cloacae overproducing chromosomally-mediated class C β-lactamase", "experiment": "MIC of third-generation cephalosporins alone and with compounds 4 or 9 (Table 3)", "type": "cell-based, Enterobacter cloacae", "settings": "antibiotic alone", "text": "as §4, §5"}, "[5]": {"test_system": "P. aeruginosa, AmpC-overproducing", "experiment": "MIC of third-generation cephalosporins alone and with compounds (Table 6)", "type": "cell-based, Pseudomonas aeruginosa", "settings": "antibiotic alone", "experimental": "as §1, §2\nTable 6. MICs (μg/ml) of third-generation cephalosporins alone and in association with the compounds (ratio 1/4) for clinical bacteria. […]"}, "[6]": {"test_system": "AmpC-overproducing Escherichia coli strain 4", "experiment": "Mouse model of bacteremia and sepsis, survival", "type": "in vivo, OF1 mice", "settings": "120 h post infection; ip at 0.5, 3.5, 6.5 h; imipenem 50 mg/kg, cefotaxime 50 mg/kg, cefotaxime:CR161 50:200 mg/kg", "experimental": "FIG. 17. Percentage of survival of mice infected with AmpC-overproducing Escherichia coli over the course of 5 days (120 h). Mice were inoculated by intraperitoneal injection with AmpC-overproducing Escherichia coli strain 4 (1±0.5 10^9 colony-forming units) and treated at 0.5, 3.5, 6.5 h after infection by intraperitoneal injection of 50 mg/kg imipenem (□, n=20), 50:200 mg/kg cefotaxime:CR161 combination (▪, n=17), 50 mg/kg cefotaxime (●, n=20) or sterile isotonic saline (◯, n=20).\nEfficacy in a mouse model of infection. We had not observed such substantial reversal of bacterial resistance to β-lactams, across such a broad spectrum of clinical isolates, for previous series of boronic acid inhibitors of β-lactamase; indeed, this lack of efficacy had motivated this study. These new cell-culture MIC values inspired us to investigate the efficacy of one of these compounds in a mouse model of bacteremia and sepsis. […] Mice were treated with cefotaxime alone, cefotaxime combined with compound CR161, with sterile isotonic saline, and with imipenem as a reference treatment of systemic infections by cephalosporin-resistant enterobacteriaceae (FIG. 17); 20 mice were used in each clade. […]\nOF1 mice 4-5 weeks of age and weighing 20-25 g were used in this study. […] The survival of mice in each group was monitored every 6 h for 5 days after infection. […]"}, "[7]": {"test_system": "E. coli overproducing chromosomally-mediated class C β-lactamase", "experiment": "MIC of third-generation cephalosporins alone and with compounds 4 or 9 (Table 3)", "type": "cell-based, Escherichia coli", "settings": "antibiotic alone", "text": "as §4, §5"}},
  "data": [
    {"smiles": "CO/N=C(\\C(=O)N[C@@H]1C(=O)N2C(C(=O)O)=C(COC(C)=O)CS[C@H]12)c1csc(N)n1", "note": "[Cefotaxime]", "values": [
      {"measurement": "MIC, cephalosporin alone", "setting": "[1]", "value": 128, "unit": "µg/mL"},
      {"measurement": "MIC, cephalosporin alone", "setting": "[2]", "value": 64, "unit": "µg/mL"},
      {"measurement": "MIC, cephalosporin alone", "setting": "[3]", "value": 8, "unit": "µg/mL"},
      {"measurement": "MIC, cephalosporin alone", "setting": "[4]", "value": 64, "unit": "µg/mL"},
      {"measurement": "MIC, cephalosporin alone", "setting": "[5]", "value": ">128", "unit": "µg/mL"},
      {"measurement": "survival", "setting": "[6]", "value": 15, "unit": "%"},
      {"measurement": "MIC, cephalosporin alone", "setting": "[7]", "value": 8, "unit": "µg/mL"}
    ]}
  ]
}
